Like-named read-outs stand apart in the source and are kept apart here.
What was measured:
human BACE1 = human BACE1 (Homo sapiens, UniProt P56817); assay: Fluorescent kinetic assay, BACE-1 (Example 114); assay type: biochemical
Procedure: Evaluation of BACE-1 Binding Affinity of Test Compounds
Fluorescent Kinetic Assays
Dilution and mixing steps: total reaction volume: 100 μL
100 μM substrate dilution in 1×PBS was prepared, and
Fluorescence Readings: Readings at λex 320 nm and εem 420 nm are taken every 40 sec for 30 min at room temperature and the linear slope for substrate cleavage rate (vi) determined.

[1] = 10 nM human BACE1, 25 μM substrate WABC-6, 50 mM Na-Acetate pH 4.5, room temperature, read-out: BACE-1 (IC50 μM)

Chain of human BACE1 (P56817 46-501): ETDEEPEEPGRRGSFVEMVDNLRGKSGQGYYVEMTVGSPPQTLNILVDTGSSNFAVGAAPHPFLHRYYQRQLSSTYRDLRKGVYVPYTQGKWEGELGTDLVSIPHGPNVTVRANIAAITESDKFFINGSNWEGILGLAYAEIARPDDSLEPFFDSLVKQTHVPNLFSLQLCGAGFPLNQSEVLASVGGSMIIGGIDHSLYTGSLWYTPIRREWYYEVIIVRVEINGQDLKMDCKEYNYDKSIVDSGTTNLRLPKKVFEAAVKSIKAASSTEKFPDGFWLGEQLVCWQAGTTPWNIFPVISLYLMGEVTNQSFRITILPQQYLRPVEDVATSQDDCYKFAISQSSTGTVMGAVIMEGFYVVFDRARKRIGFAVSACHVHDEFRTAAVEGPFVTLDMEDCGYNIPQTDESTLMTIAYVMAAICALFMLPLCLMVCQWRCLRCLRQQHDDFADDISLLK

SMILES	melting point	IC50 (human BACE1)	IC50 (human BACE1; [1])
CCc1cc(C2(c3ccc(F)c(-c4cnccc4F)c3)N=C(N)N(C)C2=O)cc(CC)n1 (stereo not drawn)	92 to 100 °C	–	–
CN1C(=O)C(c2ccccc2)(c2ccncc2)N=C1N (stereo not drawn) [Example 23, 2-Amino-3-methyl-5-phenyl-5-pyridin-4-yl-3,5-dihydro-4H-imidazol-4-one]	–	> 1 µM	–
CN1C(=O)C(c2cccnc2)(c2cccc(-c3ccccc3)c2)N=C1N (stereo not drawn) [Example 27]	212 to 214 °C	–	0.11 to 1 µM
CN1C(=O)C(c2ccccc2)(c2cccnc2)N=C1N (stereo not drawn) [Example 28]	205 to 206 °C	–	> 1 µM
CN1C(=O)C(c2ccncc2)(c2cccc(-c3cc(F)cc(F)c3)c2)N=C1N (stereo not drawn) [Example 31]	–	0.01 to 0.1 µM	–
CN1C(=O)C(c2ccncc2)(c2cccc(-c3cccc(C(F)(F)F)c3)c2)N=C1N (stereo not drawn) [Example 32]	234 °C	0.11 to 1 µM	–
COc1cncc(-c2cccc(C3(c4ccncc4)N=C(N)N(C)C3=O)c2)c1 (stereo not drawn) [Example 33]	198 to 200 °C	0.01 to 0.1 µM	–
COc1cccc(-c2cccc(C3(c4ccncc4)N=C(N)N(C)C3=O)c2)c1 (stereo not drawn) [Example 34]	–	0.01 to 0.1 µM	–
CN1C(=O)C(c2ccncc2)(c2cccc(-c3cccc(O)c3)c2)N=C1N (stereo not drawn) [Example 35]	263 to 265 °C	0.11 to 1 µM	–
CN1C(=O)C(c2ccncc2)(c2cccc(-c3cccc(CO)c3)c2)N=C1N (stereo not drawn) [Example 36]	177 to 179 °C	0.11 to 1 µM	–
CN1C(=O)C(c2ccncc2)(c2cccc(-c3cccc(C(N)=O)c3)c2)N=C1N (stereo not drawn) [Example 37]	188 to 190 °C	0.11 to 1 µM	–
CC(=O)c1cccc(-c2cccc(C3(c4ccncc4)N=C(N)N(C)C3=O)c2)c1 (stereo not drawn) [Example 38]	218 to 220 °C	0.11 to 1 µM	–
COc1ccc(F)cc1-c1cccc(C2(c3ccncc3)N=C(N)N(C)C2=O)c1 (stereo not drawn) [Example 39]	233 to 235 °C	0.01 to 0.1 µM	–
CN1C(=O)C(c2ccncc2)(c2cccc(-c3cccc(F)c3F)c2)N=C1N (stereo not drawn) [Example 40]	–	0.01 to 0.1 µM	–
CN1C(=O)C(c2ccncc2)(c2cccc(-c3cc(C#N)ccc3F)c2)N=C1N (stereo not drawn) [Example 41]	213 to 215 °C	0.01 to 0.1 µM	–
CN1C(=O)C(c2ccncc2)(c2cccc(-c3cc(F)cnc3Cl)c2)N=C1N (stereo not drawn) [Example 42]	120 to 122 °C	0.11 to 1 µM	–
CN1C(=O)C(c2ccncc2)(c2cccc(-c3cccnc3F)c2)N=C1N (stereo not drawn) [Example 43]	–	0.01 to 0.1 µM	–
CN1C(=O)C(c2ccncc2)(c2cccc(-c3cccnc3)c2)N=C1N (stereo not drawn) [Example 44]	–	0.01 to 0.1 µM	–
CN1C(=O)C(c2ccncc2)(c2cccc(-c3ccoc3)c2)N=C1N (stereo not drawn) [Example 45]	113 to 115 °C	–	–
CN1C(=O)C(c2ccncc2)(c2cccc(-c3ccsc3)c2)N=C1N (stereo not drawn) [Example 46]	217 to 219 °C	–	–
CN1C(=O)C(c2ccncc2)(c2cccc(-c3cc[nH]n3)c2)N=C1N (stereo not drawn) [Example 47]	148 to 150 °C	> 1 µM	–

SMILES	melting point	IC50 (human BACE1)	IC50 (human BACE1; [1])
CN1C(=O)C(c2ccncc2)(c2cccc(-c3ccn(C)n3)c2)N=C1N (stereo not drawn) [Example 48]	199 to 201 °C	0.11 to 1 µM	–
COc1ncccc1-c1cccc(C2(c3ccncc3)N=C(N)N(C)C2=O)c1 (stereo not drawn) [Example 49]	243 to 245 °C	0.11 to 1 µM	–
CN1C(=O)C(c2ccncc2)(c2cccc(-c3ccc(C#N)s3)c2)N=C1N (stereo not drawn) [Example 50]	220 to 222 °C	0.11 to 1 µM	–
CN1C(=O)C(c2ccncc2)(c2cccc(O)c2)N=C1N (stereo not drawn) [Example 51, 2-Amino-5-(3-hydroxyphenyl)-3-methyl-5-pyridin-4-yl-3,5-dihydro-4H-imidazol-4-one]	245 to 247 °C	–	> 1 µM
CCCOc1cccc(C2(c3ccncc3)N=C(N)N(C)C2=O)c1 (stereo not drawn) [Example 52, 2-Amino-3-methyl-5-(3-propoxyphenyl)-5-pyridin-4-yl-3,5-dihydro-4H-imidazol-4-one]	173 to 175 °C	–	–
CN1C(=O)C(c2ccncc2)(c2cccc(-c3cccc(F)c3)c2)N=C1N (stereo not drawn) [Example 53]	–	0.01 to 0.1 µM	–
CN1C(=O)C(c2ccncc2)(c2cccc(-c3cccc(OC(F)(F)F)c3)c2)N=C1N (stereo not drawn) [Example 54]	208 to 210 °C	0.11 to 1 µM	–
CN1C(=O)C(c2ccncc2)(c2cccc(-c3cccc(C#N)c3)c2)N=C1N (stereo not drawn) [Example 55]	–	0.01 to 0.1 µM	–
CN1C(=O)C(c2cccc(-c3cccnc3F)c2)(c2ccncc2F)N=C1N (stereo not drawn) [Example 58]	237 to 238 °C	0.01 to 0.1 µM	–
CN1C(=O)C(c2ccncc2)(c2ccc(F)c(-c3cccnc3F)c2)N=C1N (stereo not drawn) [Example 59]	218 to 220 °C	0.01 to 0.1 µM	–
Cc1cc(C2(c3cccc(-c4cccnc4)c3)N=C(N)N(C)C2=O)ccn1 (stereo not drawn) [Example 60]	–	0.01 to 0.1 µM	–
Cc1cc(C2(c3cccc(-c4cncnc4)c3)N=C(N)N(C)C2=O)ccn1 (stereo not drawn) [Example 61]	–	0.01 to 0.1 µM	–
Cc1cc(C2(c3cccc(-c4cc(F)ccc4F)c3)N=C(N)N(C)C2=O)ccn1 (stereo not drawn) [Example 62]	161 to 163 °C	0.01 to 0.1 µM	–
CCc1cc(C2(c3cccc(-c4cccnc4)c3)N=C(N)N(C)C2=O)ccn1 (stereo not drawn) [Example 63]	217 to 219 °C	0.01 to 0.1 µM	–
CCc1cc(C2(c3cccc(-c4cc(F)ccc4F)c3)N=C(N)N(C)C2=O)ccn1 (stereo not drawn) [Example 65]	188 to 192 °C	–	–
Cc1cc(C2(c3cccc(-c4cnccn4)c3)N=C(N)N(C)C2=O)ccn1 (stereo not drawn) [Example 66]	138 to 141 °C	0.01 to 0.1 µM	–
CCc1cc(C2(c3cccc(-c4cnccn4)c3)N=C(N)N(C)C2=O)ccn1 (stereo not drawn) [Example 67]	138 to 140 °C	0.01 to 0.1 µM	–
CN1C(=O)C(c2ccncc2)(c2cccc(OCC3CC3)c2)N=C1N (stereo not drawn) [Example 71]	200 to 202 °C	0.11 to 1 µM	–
CCc1cc(C2(c3cccc(OCC4CC4)c3)N=C(N)N(C)C2=O)cc(CC)n1 (stereo not drawn) [Example 72]	68 to 70 °C	0.11 to 1 µM	–
Cc1cc(C2(c3cccc(-c4cccnc4)c3)N=C(N)N(C)C2=O)cc(C)n1 (stereo not drawn) [Example 74]	176 to 180 °C	0.11 to 1 µM	–
Cc1cc(C2(c3cccc(-c4cncnc4)c3)N=C(N)N(C)C2=O)cc(C)n1 (stereo not drawn) [Example 75]	–	0.11 to 1 µM	–

SMILES	melting point	IC50 (human BACE1)	IC50 (human BACE1; [1])
Cc1cc(C2(c3cccc(-c4cc(F)ccc4F)c3)N=C(N)N(C)C2=O)cc(C)n1 (stereo not drawn) [Example 76]	184 to 190 °C	0.11 to 1 µM	–
CCc1cc(C2(c3cccc(-c4cccnc4)c3)N=C(N)N(C)C2=O)cc(C)n1 (stereo not drawn) [Example 83]	135 to 139 °C	–	0.11 to 1 µM
CCc1cc(C2(c3cccc(-c4cncnc4)c3)N=C(N)N(C)C2=O)cc(C)n1 (stereo not drawn) [Example 84]	–	0.11 to 1 µM	–
CCc1cc(C2(c3cccc(-c4cc(F)ccc4F)c3)N=C(N)N(C)C2=O)cc(C)n1 (stereo not drawn) [Example 85]	114 to 117 °C	–	0.11 to 1 µM
CCc1cc(C2(c3cccc(-c4cnccn4)c3)N=C(N)N(C)C2=O)cc(C)n1 (stereo not drawn) [Example 86]	130 to 134 °C	–	0.11 to 1 µM
CC(C)c1cc(C2(c3cccc(-c4cncnc4)c3)N=C(N)N(C)C2=O)ccn1 (stereo not drawn) [Example 87]	–	0.01 to 0.1 µM	–
CN1C(=O)C(c2cccc(-c3cccnc3)c2)(c2ccnc(Cl)c2)N=C1N (stereo not drawn) [Example 89]	223 to 225 °C	–	0.01 to 0.1 µM
CCc1cc(C2(c3cccc(-c4cncnc4)c3)N=C(N)N(C)C2=O)cc(CC)n1 (stereo not drawn) [Example 91]	–	0.01 to 0.1 µM	–
CCc1cc(C2(c3cccc(-c4ccc(F)nc4)c3)N=C(N)N(C)C2=O)cc(CC)n1 (stereo not drawn) [Example 93]	–	–	0.11 to 1 µM
COc1ncc(C2(c3cccc(-c4cncnc4)c3)N=C(N)N(C)C2=O)c(OC)n1 (stereo not drawn) [Example 97]	–	–	> 1 µM
COc1ncc(C2(c3cccc(-c4cccnc4F)c3)N=C(N)N(C)C2=O)c(OC)n1 (stereo not drawn) [Example 98]	–	–	0.11 to 1 µM
Cc1cc(C2(c3cccc(-c4cnccn4)c3)N=C(N)N(C)C2=O)cc(C)n1 (stereo not drawn) [Example 101]	–	–	0.11 to 1 µM
Cc1cc(C2(c3cccc(-c4cncnc4)c3)N=C(N)N(C)C2=O)cc[n+]1[O-] (stereo not drawn) [Example 102]	181 to 186 °C	–	–
CCc1cc([C@@]2(c3cccc(-c4cncnc4)c3)N=C(N)N(C)C2=O)cc(CC)n1 [Example 103A]	–	> 1 µM	–
CCc1cc([C@]2(c3cccc(-c4cncnc4)c3)N=C(N)N(C)C2=O)cc(CC)n1 [Example 103B]	–	0.01 to 0.1 µM	–
CCc1cc([C@@]2(c3cccc(-c4ccc(F)nc4)c3)N=C(N)N(C)C2=O)cc(CC)n1 [Example 108A, (5R)-2-Amino-5-(2,6-diethylpyridin-4-yl)-5-[3-(6-fluoropyridin-3-yl)phenyl]-3-methyl-3,5-dihydro-4H-imidazol-4-one]	–	–	> 1 µM
CCc1cc([C@]2(c3cccc(-c4ccc(F)nc4)c3)N=C(N)N(C)C2=O)cc(CC)n1 [Example 108B, (5S)-2-Amino-5-(2,6-diethylpyridin-4-yl)-5-[3-(6-fluoropyridin-3-yl)phenyl]-3-methyl-3,5-dihydro-4H-imidazol-4-one]	–	–	0.01 to 0.1 µM
COc1ccc(C2(c3ccnc(-c4ccccc4)c3)N=C(N)N(C)C2=O)cc1C (stereo not drawn) [Example 109, 2-Amino-5-(4-methoxy-3-methylphenyl)-3-methyl-5-(2-phenylpyridin-4-yl)-3,5-dihydro-4H-imidazol-4-one]	–	–	0.11 to 1 µM
CN1C(=O)[C@](c2ccncc2)(c2ccc(F)c(-c3cccnc3F)c2)N=C1N [Example 113A, (5R)-2-amino-5-[4-fluoro-3-(2-fluoropyridin-3-yl)phenyl]-3-methyl-5-pyridin-4-yl-3,5-dihydro-4H-imidazol-4-one]	–	–	> 1 µM
CN1C(=O)[C@@](c2ccncc2)(c2ccc(F)c(-c3cccnc3F)c2)N=C1N [Example 113B, (5S)-2-amino-5-[4-fluoro-3-(2-fluoropyridin-3-yl)phenyl]-3-methyl-5-pyridin-4-yl-3,5-dihydro-4H-imidazol-4-one]	–	–	> 1 µM

Source: patent US7452885B2, “Amino-5-(6-membered)heteroarylimidazolone compounds and the use thereof for β-secretase modulation” (Wyeth, priority 2005, dated 2008)
